What is called Kd is a measure of binding affinity in units of concentration. By IC50 is commonly meant the concentration that gives 50% inhibition. The inhibition is how much of the control response was suppressed. Low values mean a weak effect, high ones a strong effect.

Where two headings read alike, the source gives them in different places.

Data on 2 molecules can be found in publication PMC6739329 (Scientific Reports, 2019).

The target of data set [1] is T1, PKM2 (Homo sapiens, UniProt P14618).
T1 construct: each gene was amplified and cloned into pET28a vector for recombinant protein production; 6xHis; made in house; host or cells: Escherichia coli BL21
T1 sequence (P14618 whole entry): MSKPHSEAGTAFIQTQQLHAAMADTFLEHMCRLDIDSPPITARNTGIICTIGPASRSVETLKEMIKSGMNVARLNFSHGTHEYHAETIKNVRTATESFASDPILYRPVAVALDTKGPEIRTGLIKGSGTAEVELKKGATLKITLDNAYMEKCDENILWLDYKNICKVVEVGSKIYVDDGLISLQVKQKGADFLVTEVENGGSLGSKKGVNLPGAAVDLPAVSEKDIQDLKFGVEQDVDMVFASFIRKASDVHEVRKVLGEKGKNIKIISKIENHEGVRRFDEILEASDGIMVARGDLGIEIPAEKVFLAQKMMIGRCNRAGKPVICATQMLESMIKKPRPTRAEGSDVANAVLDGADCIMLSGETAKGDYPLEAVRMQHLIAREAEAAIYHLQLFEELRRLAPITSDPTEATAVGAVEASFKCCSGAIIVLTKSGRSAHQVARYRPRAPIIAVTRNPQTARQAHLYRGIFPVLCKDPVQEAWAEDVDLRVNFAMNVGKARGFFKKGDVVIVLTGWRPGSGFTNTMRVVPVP
In words: Thermal stability assay of PKM2 with salicylates. Type of data set: binding. The conditions noted are these: 2 µM PKM2, Tm 42 °C without ligand.

Data set [2] addresses T1, PKM2. Description: Tryptophan (Trp) intrinsic fluorescence assay of PKM2. The conditions noted are these: 1 µM PKM2, 30 min at RT; read-out: Kd (quenching of PKM2 intrinsic fluorescence). The class given is binding.
The target of data set [3] is T1, PKM2. Description: In vitro PKM activity assay (LDH-coupled, NADH to NAD+), PKM2. To be noted: 1.3 ng/µL PKM2. Type of data set: biochemical. As to the method: PK activity was measured using a method described previously with minor modifications. In brief, PK activity was measured by monitoring pyruvate-dependent conversion of NADH to NAD^+ by lactate dehydrogenase (LDH). Increasing concentrations of salicylates were incubated with PKM2 (final concentration 1.3 ng/uL) for 30 min at RT in the incubation buffer (50 mM Tris-HCl, pH 7.5, 100 mM KCl, 5 mM MgCl2) before mixing with 1/10 volume of 10X pyruvate kinase reaction buffer (500 mM Tris-HCl, pH 7.5, 500 mM KCl, 50 mM MgCl2, 5 mM PEP (Sigma-Aldrich, P0564), 6 mM ADP (Sigma-Aldrich, A5285), 80 units LDH (Sigma-Aldrich, L1254), 10 mM DTT, and 1.80 mM NADH (SigmaAldrich, N8129)).

In data set [4] the test system is HEK293 cells. Description: In vivo glycolytic activity assay (extracellular lactate). The class given is cell-based, human. To be noted: for Reduction of extracellular lactate levels: 15 hrs.
Experimental: Data are mean ± SD (n = 3).
Glycolytic activity of HEK293 cells in the absence or presence of different concentrations of salicylates was measured by monitoring the level of lactate produced[33],[34]. HEK293 cells were seeded in 96-well tissue culture plates at a density of 10^4 cells/well in 120 µL of complete medium (DMEM medium supplemented with 10% heat-inactivated FBS). Plates were incubated overnight in a CO2 incubator at 37 °C. […] Following a 15 hr incubation in a CO2 incubator at 37 °C, cellular supernatants were collected and lactate levels were measured by colorimetry according to the manufacturer’s instructions for a glycolysis cell-based assay kit (Cayman, Ann Arbor, Michigan).
In data set [5] the test system is HEK293 cells. Description: Morphology of HEK293 cells treated 15 h with salicylates. The conditions noted are these: 15 h treatment. The class given is cell-based, human.
Text: Data are mean ± SD (n = 3). […] Scale bar = 20 μm.
changes in HEK293 cells. Scale bar = 50 μm.
changes of HEK293 cells. Scale bar = 50 μm.
Data set [6] has as its target T2, ENO1 (Homo sapiens, UniProt P06733). Description: Thermal stability assay of ENO1 with salicylates. To be noted: 2 µM ENO1, Tm 44 °C in the absence of SA or amoB1.
Experimental: Data are mean ± SD (n = 3). Experiments were repeated three times with similar results.
Thermal stability assay was performed with ENO1 and PKM2 as previously described with minor modifications[7].
A thermal stability assay was used to examine the binding activities of ENO1 and PMK2 with salicylates as previously described with minor modifications 6. Purified ENO1 and
final concentration of each protein was 2 μM in 16 μl of reaction buffer (0.1 M HEPES, pH 7.5, 150 mM NaCl, and 5 mM BME). Four μl of a 1:200 dilution of stock SYPRO orange dye (Invitrogen) in reaction buffer was added to achieve a total reaction volume of 20 μl. Thermal melt curves were obtained by heating the protein from 20–95°C and monitoring fluorescence at 590 nm with a CFX96 Real-Time PCR Detection System (Bio-Rad). All curves were obtained in triplicate and averaged.
The target in data set [7] is T2, ENO1. The conditions noted are these: read-out: Kd (quenching of ENO1 intrinsic fluorescence); 1 µM ENO1, 30 min at RT.
Experimental: For the Trp intrinsic fluorescence assay, different concentrations of salicylates were incubated with 1 µM ENO1 for 30 min at RT, then Trp emission fluorescence was obtained (excitation/emission = 295 nm/350 nm). […] Data are mean ± SD (n = 3). Experiments were repeated three times with similar results.
Binding of salicylates to ENO1 and PKM2 was assessed using a Trp intrinsic fluorescence assay as previously described[79].
A Trp intrinsic fluorescence assay was used to examine the binding of salicylates to ENO1
The final concentration of each protein was 1 μM in phosphate-buffered saline (PBS) buffer. The mixtures were subjected to excitation wavelength of 295 nm and the Trp emission fluorescence was recorded at 350 nm using a LS55 fluorescence spectrometer (Perkin Elmer). All data were obtained in triplicate and averaged.
In data set [8] the target is T2, ENO1. Description: In vitro ENO1 activity assay (2-PGA to PEP, absorbance at 240 nm).
Experimental: Background signals induced by reaction solutions containing salicylates and 2-PGA, but without ENO1, were subtracted to calculate ΔOD240. […] Percent inhibition was calculated by monitoring the ΔOD240 at 5 min with or without salicylates. Data are mean ± SD (n = 3). Experiments were repeated three times with similar results.
The catalytic activity of ENO1 was tested as previously described with minor modifications[80]. Briefly, increasing concentrations of salicylates were incubated with 0.1 µM ENO1 for 30 min at RT in reaction buffer (10 mM KCl, 5 mM MgSO4, 100 mM triethanolamine pH 7.4).
In data set [9] the target is maltose-binding protein (MBP) (Escherichia coli, UniProt P0AEX9). In words: Thermal stability assay of maltose-binding protein (negative control protein). The conditions noted are these: 10 mM SA.
The next data set concerns the target PKM1 (Homo sapiens, UniProt P14618). In words: In vitro PKM activity assay, PKM1. The class given is biochemical. To be noted: SA 0.4 mM.
The conditions of data set [10]: resulting from the required aspirin dosage; cited from earlier work.

T2 sequence (P06733 whole entry): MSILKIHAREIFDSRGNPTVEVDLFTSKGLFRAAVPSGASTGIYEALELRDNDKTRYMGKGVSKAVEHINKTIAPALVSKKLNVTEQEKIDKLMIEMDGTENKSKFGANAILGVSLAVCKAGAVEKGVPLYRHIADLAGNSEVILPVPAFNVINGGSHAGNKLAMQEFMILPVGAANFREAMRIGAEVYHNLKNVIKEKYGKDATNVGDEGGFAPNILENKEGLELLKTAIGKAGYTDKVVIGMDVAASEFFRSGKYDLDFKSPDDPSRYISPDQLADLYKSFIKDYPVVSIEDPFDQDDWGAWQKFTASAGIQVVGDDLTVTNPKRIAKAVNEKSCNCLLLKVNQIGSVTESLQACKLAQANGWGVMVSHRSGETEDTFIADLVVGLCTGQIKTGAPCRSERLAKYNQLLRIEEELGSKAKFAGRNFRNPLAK
Sequence of PKM1 (P14618 1-531 isoform P14618-2, species assumed): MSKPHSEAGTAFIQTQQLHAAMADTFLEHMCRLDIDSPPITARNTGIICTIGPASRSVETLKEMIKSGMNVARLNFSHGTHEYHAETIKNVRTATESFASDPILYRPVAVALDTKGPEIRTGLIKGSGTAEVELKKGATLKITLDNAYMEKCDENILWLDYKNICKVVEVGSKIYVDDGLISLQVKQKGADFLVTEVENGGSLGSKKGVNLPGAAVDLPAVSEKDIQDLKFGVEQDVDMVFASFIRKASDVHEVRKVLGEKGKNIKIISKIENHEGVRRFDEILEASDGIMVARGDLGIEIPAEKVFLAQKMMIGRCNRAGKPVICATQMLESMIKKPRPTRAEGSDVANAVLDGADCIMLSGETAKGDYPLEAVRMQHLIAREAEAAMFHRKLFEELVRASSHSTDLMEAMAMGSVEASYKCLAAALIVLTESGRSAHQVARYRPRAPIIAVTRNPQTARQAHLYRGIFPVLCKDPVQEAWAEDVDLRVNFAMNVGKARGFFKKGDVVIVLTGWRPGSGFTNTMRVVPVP

With `COc1cc(CCc2ccccc2)c(C(=O)O)c(O)c1C/C=C(\C)CCC=C(C)C` [amoB1, amorfrutin B1], the “Tm of PKM2” value on PKM2 [1] (5 µM amoB1) is 42.4 °C. Moreover, the results for the Kd on PKM2 [2] and at ENO1 [7] were 3.2 µM and 26.9 µM, respectively. Besides, the IC50 on PKM2 [3] was 15.2 µM; at ENO1 [8] (read-out: IC50 for ENO1 enzymatic activity, 0.1 µM ENO1, […] 2-PGA, ΔOD240 at 5 min) it was 15.4 µM. Further, the Extracellular lactate levels result with HEK293 cells [4] (20–50 µM amoB1, 15 hr) is “drastically reduced”; in the data set on HEK293 cells [4] (amoB1 up to 10 µM, 15 hr), “not substantially altered”. In addition, in the data set on HEK293 cells [5], the “Concentration at which cell deformation was observed” value is “above 2 µM”. Besides, the “Concentration with no visible morphological changes of cells” value with HEK293 cells [5] is “Up to 2 µM”. Besides, the “Tm of ENO1” value on ENO1 [6] (12.5 µM amoB1) came out at 45.1 °C. Besides, the “Potency of ENO1 inhibition relative to SA (times stronger than SA)” value on ENO1 [8] (ratio of IC50 values) was ~ 84 times.

On to `O=C(O)c1ccccc1O` [SA, Salicylic acid], for which the “Tm of PKM2” value on PKM2 [1] (5 mM SA) was determined as 41 °C. Further, the “Tm of MBP” value in data set [9] is listed as “not altered”. In addition, the inhibition at 400 µM against PKM2 [3] (400 µM SA) was ≤ 40%. The “Effect on PKM1 enzymatic activity” value at PKM1 is “did not alter”. The “Reduction of extracellular lactate levels” value in the data set on HEK293 cells [4] (0.5 mM SA) is 12%; in the data set with HEK293 cells [4] (1.0 mM SA) it was 27%. In the data set on HEK293 cells [5], the “Concentration at which cells were substantially smaller and more spherical” value was ≥ 20000 µM. The “Concentration with no detectable morphological deformation of cells” value in the data set on HEK293 cells [5] (microscope) is recorded as “up to 10 mM”. The “SA in the plasma for analgesic/antipyretic effects” value in data set [10] is ~ 0.5 mM. Besides, the “Tm of ENO1” value on ENO1 [6] (5 mM SA) came out at 43.0 °C. Besides, half-maximal inhibition against ENO1 [8] (IC50) was put at 1300 µM.
